{"source": "patent US7442701B2", "about": "“Amino-heterocycles as VR-1 antagonists for treating pain” (Merck Sharp & Dohme Ltd., priority 2002, dated 2008)", "origin": "cited, not measured here", "molecular_target": "VR1 (Rattus norvegicus, UniProt O35433)", "sequence (O35433 whole entry)": "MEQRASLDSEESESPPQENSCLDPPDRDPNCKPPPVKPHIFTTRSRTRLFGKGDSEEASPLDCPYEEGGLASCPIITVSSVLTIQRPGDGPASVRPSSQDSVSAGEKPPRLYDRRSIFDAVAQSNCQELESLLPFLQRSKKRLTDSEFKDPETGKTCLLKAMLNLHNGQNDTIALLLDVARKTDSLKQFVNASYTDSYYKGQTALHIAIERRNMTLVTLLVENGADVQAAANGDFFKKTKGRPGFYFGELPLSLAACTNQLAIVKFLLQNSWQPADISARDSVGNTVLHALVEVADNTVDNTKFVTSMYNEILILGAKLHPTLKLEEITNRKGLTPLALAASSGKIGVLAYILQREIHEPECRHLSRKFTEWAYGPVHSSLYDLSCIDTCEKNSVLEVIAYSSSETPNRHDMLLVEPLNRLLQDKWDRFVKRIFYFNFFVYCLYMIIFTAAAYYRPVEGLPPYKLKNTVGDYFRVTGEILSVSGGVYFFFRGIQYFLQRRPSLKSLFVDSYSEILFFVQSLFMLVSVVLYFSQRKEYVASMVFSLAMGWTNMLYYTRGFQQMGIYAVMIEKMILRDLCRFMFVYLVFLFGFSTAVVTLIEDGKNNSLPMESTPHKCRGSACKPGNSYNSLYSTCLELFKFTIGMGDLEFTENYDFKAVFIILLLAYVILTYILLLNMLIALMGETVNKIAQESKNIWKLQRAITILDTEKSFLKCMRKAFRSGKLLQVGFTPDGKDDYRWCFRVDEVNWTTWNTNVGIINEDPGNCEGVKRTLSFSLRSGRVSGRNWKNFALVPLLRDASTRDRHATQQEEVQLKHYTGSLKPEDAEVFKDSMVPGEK", "details": "Wahl et al., Mol. Pharmacol., 59:9, 2001"}
{"compound": "C=C(C)[C@]12C[C@@H](C)[C@@]34O[C@](Cc5ccccc5)(O[C@@H]1[C@@H]3C=C(COC(=O)Cc1cc(I)c(O)c(OC)c1)C[C@]1(O)C(=O)C(C)=C[C@@H]41)O2", "note": "[Iodo-resiniferatoxin]", "values": [{"measurement": "antagonist of VR1", "result": "nanomolar antagonist"}]}
